From patent US10323051B2, “Methods for controlling depolymerization of polymer compositions” (RHODIA OPERATIONS, priority 2011, dated 2019)
Read-outs that look alike come from different tables or passages of the source.

Tests used:
[1] = Molecular weight determination of polymer in the presence of THPS by GPC with light scattering detection; type: physicochemical; conditions: for Mn / Mw / Polydispersity (Mw/Mn): 75 ppm THPS, 1% pol A, overnight at ambient temperature
[2] = Viscosity of THPS-(1%) polyacrylamide aqueous dispersion (OFITE viscometer, 300 rpm); type: physicochemical; conditions: for viscosity @300 rpm (shear rate 500 s-1) after 60 minutes / viscosity @300 rpm after 60 minutes: 1% polyacrylamide; for effect on depolymerization: polyacrylamide with THPS under aerobic conditions at acidic pH, inhibitor added; for viscosity @300 rpm after 60 minutes: no depolymerization inhibitor
[3] = guar or guar derivatives mixed with THPS at 10-1000 ppm
Method: The polymer(s) under investigation were weighed and dissolved in (deionized) DI water to attain a desired concentration (for example, 0.48% w/w guar, 1.0% w/w polyacrylamide). The solution was mixed thoroughly for 1 h to ensure that the polymer had fully or substantially dissolved and the polymer fully hydrated
The polymer solution as prepared above was placed in a 250 ml beaker. Viscosity was measured with an OFITE viscometer (model 900). Initial viscosity was recorded (300 rpm) (at 500 s^−1) and then an acetic acid/sodium acetate buffer added to achieve a total concentration in the polymer solution of 0.2% w/w. pH and viscosity were recorded and then the depolymerization inhibitor was added. THPS at the concentration being investigated was then added. Viscosity measurements were then made at various time intervals as recorded in the table of FIG. 1.

For `O=C1O[C@H]([C@@H](O)CO)C(O)=C1O` [ascorbic acid], the Mn ([1]; 1 ppm ascorbic acid) was 1,460,000 g/mol, the Mw ([1]; 1 ppm ascorbic acid) was 1,770,000 g/mol and the “Polydispersity (Mw/Mn)” value ([1]; 1 ppm ascorbic acid) was 1.22. The Mn ([1]; 10 ppm ascorbic acid) was 1,480,000 g/mol, the Mw ([1]; 10 ppm ascorbic acid) was 1,840,000 g/mol and the “Polydispersity (Mw/Mn)” value ([1]; 10 ppm ascorbic acid) was 1.25. For the same compound, the Mn ([1]; 50 ppm ascorbic acid) was 1,590,000 g/mol, the Mw ([1]; 50 ppm ascorbic acid) was 1,890,000 g/mol and the “Polydispersity (Mw/Mn)” value ([1]; 50 ppm ascorbic acid) was 1.19. The “viscosity @300 rpm (shear rate 500 s-1) after 60 minutes” value ([2]; 75 ppm THPS with 100 ppm ascorbic acid (rerun), initial viscosity 27.5 cP) was 25.9 cP, the “viscosity @300 rpm (shear rate 500 s-1) after 60 minutes” value ([2]; 75 ppm THPS with 200 ppm ascorbic acid, initial viscosity 27.5 cP) was 24.5 cP and the effect on depolymerization [2] was “the depolymerization is controlled or stopped”.
For `Oc1ccc(O)cc1` [hydroquinone], the “viscosity @300 rpm (shear rate 500 s-1) after 60 minutes” value ([2]; 75 ppm THPS with 25 ppm hydroquinone, initial viscosity 23.8 cP) was 14.6 cP, the “viscosity @300 rpm (shear rate 500 s-1) after 60 minutes” value ([2]; 75 ppm THPS with 50 ppm hydroquinone, initial viscosity 25.1 cP) was 17.1 cP and the effect on depolymerization [2] was “the depolymerization is controlled or stopped”.
In the case of “tetrakis(hydroxymethyl)phosphonium sulfate [THPS, reference compound]”, the “effect on viscosity and molecular weight” value [3] was “reduction in viscosity of the application fluid along with a corresponding molecular weight reduction”, the Mn ([1]; no inhibitor) was 652,000 g/mol and the Mw ([1]; no inhibitor) was 812,000 g/mol. The “Polydispersity (Mw/Mn)” value ([1]; no inhibitor) was 1.25, the “Mw of THPS/polymer solution without an inhibitor relative to Mw with an inhibitor” value ([1]; after being left overnight) was “approximately half” and the “viscosity @300 rpm after 60 minutes” value ([2]; 50 ppm THPS, initial viscosity 23.8 cP) was 9.7 cP. The “viscosity @300 rpm after 60 minutes” value ([2]; 75 ppm THPS, initial viscosity 23.8 cP) was 7.3 cP, the “viscosity @300 rpm after 60 minutes” value ([2]; 100 ppm THPS, initial viscosity 23.8 cP) was 3.9 cP and the “viscosity @300 rpm after 60 minutes” value ([2]; 125 ppm THPS, initial viscosity 23.8 cP) was 2 cP. The “effect on viscosity and molecular weight” value ([2]; polyacrylamide or polyacrylamide-co-acrylic acid solutions mixed with THPS at 50-1000 ppm) was “reduction in viscosity along with a corresponding molecular weight reduction”.
